Experiments:
[1] = test system: NIH 3T3 cells; experiment: MTS cell proliferation assay, NIH 3T3; type: cell-based; conditions: Mus musculus, NIH3T3, 72-hour incubation
Protocol: (§1) Cell lines and culture conditions: Human colon cancer cells Caco-2, HT29 and HCT15, human pancreatic cancer cells BxPC3, CFPAC-1, and CAPAN-2, liver cancer cells SNU423 and kidney cells HEK293, were obtained from American Type Culture Collection (Rockville, USA). HeLa, DLD1, U937, THP-1, and NIH3T3 cells were obtained from ATCC. Huh7 cells were obtained from (Japanese Cancer Resources Bank). HeLa cells, Huh7, DLD1 and NIH-3T3 cells were cultured in DMEM (Dulbecco's modification of Eagle's Medium; Corning) supplemented with 10% Fetal Bovine Serum (FBS; Invitrogen) and 10% Fetal Calf Serum (FCS; Atlanta Biologicals) respectively. U937, BxPC3, HCT15, SNU423 and THP-1 cells were grown in RPMI-1640 (Roswell Park Memorial Institute; Corning) supplemented with 10% Fetal Bovine Serum (FBS; Invitrogen). CFPAC-1 cells were cultured in Iscove's Modified Dulbecco's Medium (ATCC) supplemented with 10% FBS. CAPAN-2 and HT29 cells were cultured in McCoy's 5a medium supplemented with 10% FBS. Caco2 and HEK293 cells were grown in Eagle's Minimum Essential Medium (ATCC) with final 20% FBS concentration. […]
(§2) MTS cell proliferation assay: Cells were detached from the plates using trypsin (0.25% for 3 mins, ATCC) and counted using a hemocytometer and were plated at 3000-1500 cells per well, in a 96-well format. […] After a 72-hour (or 120 hrs for BxPC3, CAPAN-2, SNU423) incubation with compound or vehicle, cell growth was assessed via the Promega CellTiter 96® AQueous One Solution Cell Proliferation Assay, a colorimetric method to determine the number of viable cells. 20 μL of the CellTiter 96® AQueous One Solution Reagent was added directly into cultured wells and incubated for approximately one hour, after which the absorbance at 490 nm was read with a 96-well plate reader (Opys MR Microplate Reader). GI50 values were determined from plots of the percentage of compound-treated cell growth to vehicle cell growth vs. compound concentration (GraphPad Prism; non-linear regression, log inhibitor verse normalized response with variable slope).

[2] = test system: SNU-423 cells; experiment: MTS cell proliferation assay, SNU-423; type: cell-based; conditions: Homo sapiens, 120 hrs incubation
Protocol: (§3) Cell lines and culture conditions: Human colon cancer cells Caco-2, HT29 and HCT15, human pancreatic cancer cells BxPC3, CFPAC-1, and CAPAN-2, liver cancer cells SNU423 and kidney cells HEK293, were obtained from American Type Culture Collection (Rockville, USA). HeLa, DLD1, U937, THP-1, and NIH3T3 cells were obtained from ATCC. Huh7 cells were obtained from (Japanese Cancer Resources Bank). HeLa cells, Huh7, DLD1 and NIH-3T3 cells were cultured in DMEM (Dulbecco's modification of Eagle's Medium; Corning) supplemented with 10% Fetal Bovine Serum (FBS; Invitrogen) and 10% Fetal Calf Serum (FCS; Atlanta Biologicals) respectively. U937, BxPC3, HCT15, SNU423 and THP-1 cells were grown in RPMI-1640 (Roswell Park Memorial Institute; Corning) supplemented with 10% Fetal Bovine Serum (FBS; Invitrogen). CFPAC-1 cells were cultured in Iscove's Modified Dulbecco's Medium (ATCC) supplemented with 10% FBS. CAPAN-2 and HT29 cells were cultured in McCoy's 5a medium supplemented with 10% FBS. Caco2 and HEK293 cells were grown in Eagle's Minimum Essential Medium (ATCC) with final 20% FBS concentration. All cells were maintained at 37° C. in 5% CO2 at constant 70% humidity.
(§4) MTS cell proliferation assay: Cells were detached from the plates using trypsin (0.25% for 3 mins, ATCC) and counted using a hemocytometer and were plated at 3000-1500 cells per well, in a 96-well format. The cells were seeded in the inner wells of 96 well plates, and media was added to the outer wells (blank). For NIH-3T3, 1500 cells were seeded in the inner wells of 96-well plates, and after 20 hours cells were treated with compound or DMSO (vehicle control) at appropriate concentrations (DMSO at final concentration of 1%). For other adherent cells 3000 HeLa, BxPC3, CFPAC-1, CAPAN-2, HEK293, HCT15, HT29, CaCo2, DLD1, Huh7 or SNU423 cells were seeded in in each well approximately 20 hrs prior to the treatment. For U937 and THP-1 suspension cells, 2500 cells were added to the wells of a 96-well plate on the day of treatment. After a 72-hour (or 120 hrs for BxPC3, CAPAN-2, SNU423) incubation with compound or vehicle, cell growth was assessed via the Promega CellTiter 96® AQueous One Solution Cell Proliferation Assay, a colorimetric method to determine the number of viable cells. 20 μL of the CellTiter 96® AQueous One Solution Reagent was added directly into cultured wells and incubated for approximately one hour, after which the absorbance at 490 nm was read with a 96-well plate reader (Opys MR Microplate Reader). GI50 values were determined from plots of the percentage of compound-treated cell growth to vehicle cell growth vs. compound concentration (GraphPad Prism; non-linear regression, log inhibitor verse normalized response with variable slope).

[3] = test system: HeLa cells; experiment: MTS cell proliferation assay, HeLa; type: cell-based; conditions: Homo sapiens, 72-hour incubation
Protocol: as §1, §2

[4] = test system: HuH7 cells; experiment: MTS cell proliferation assay, HuH7; type: cell-based; conditions: Homo sapiens, Huh-7, 72-hour incubation
Protocol: as §3, §4

[5] = molecular target: T1, SET8 methylation of Histone H4 (Homo sapiens, UniProt Q9NQR1); experiment: In vitro methylation assay, SET8 methylation of Histone H4; type: biochemical; conditions: histone H4 as substrate (FIG. 5C)
T1 construct: using full-length or overlapping segments of SET8 fused to GST; made in house; host or cells: E. coli
T1 sequence (Q9NQR1 1-352 isoform Q9NQR1-2): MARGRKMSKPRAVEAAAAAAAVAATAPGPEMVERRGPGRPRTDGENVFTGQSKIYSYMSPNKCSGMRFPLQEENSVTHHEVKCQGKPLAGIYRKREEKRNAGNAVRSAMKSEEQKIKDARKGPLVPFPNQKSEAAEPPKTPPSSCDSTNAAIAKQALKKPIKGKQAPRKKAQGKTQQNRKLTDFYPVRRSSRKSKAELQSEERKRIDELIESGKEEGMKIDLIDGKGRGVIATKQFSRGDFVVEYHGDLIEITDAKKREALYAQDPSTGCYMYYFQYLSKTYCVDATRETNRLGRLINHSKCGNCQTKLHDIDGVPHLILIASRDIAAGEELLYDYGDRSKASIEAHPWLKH
Protocol: (§5) One μg of recombinant GST-SET8 (in 50% glycerol) and 2 μg of the purified tubulin (MP-Bioscience) were incubated with radioactively labeled [3H] AdoMet at room temperature for overnight. As indicated, recombinant His-LSF protein or FQI1 inhibitor were added to the reaction. Samples were separated by electrophoresis through a 10% Tricine Gel (Invitrogen) and the gel was stained with Coomassie Brilliant Blue and incubated with EN3HANCE (PerkinElmer) solution. The gel was dried and exposed to autoradiography film for 1 week. Two […] of each peptide and 2 μg of purified SET8 or full-length SETD2 (Active Motif) were incubated with radioactively labeled [3H] AdoMet at room temperature overnight. Samples were spotted onto P81 filters (Whatman 3698325) and the filter were washed 3 times with 0.3 M ammonium bicarbonate. The ratio of incorporated [^3H]CH3 was determined using liquid scintillation counting.

[6] = test system: aggressive HCC cell line; conditions: in vitro; cited from earlier work
[7] = molecular target: T2, LSF-tubulin interaction (Homo sapiens, UniProt Q12800); experiment: Co-immunoprecipitation of LSF with endogenous α-tubulin from HEK293T cells; type: cell-based; conditions: 2.5 μM for 24 hr
T2 construct: endogenous in cells; host or cells: HEK293T
T2 sequence (Q12800 whole entry): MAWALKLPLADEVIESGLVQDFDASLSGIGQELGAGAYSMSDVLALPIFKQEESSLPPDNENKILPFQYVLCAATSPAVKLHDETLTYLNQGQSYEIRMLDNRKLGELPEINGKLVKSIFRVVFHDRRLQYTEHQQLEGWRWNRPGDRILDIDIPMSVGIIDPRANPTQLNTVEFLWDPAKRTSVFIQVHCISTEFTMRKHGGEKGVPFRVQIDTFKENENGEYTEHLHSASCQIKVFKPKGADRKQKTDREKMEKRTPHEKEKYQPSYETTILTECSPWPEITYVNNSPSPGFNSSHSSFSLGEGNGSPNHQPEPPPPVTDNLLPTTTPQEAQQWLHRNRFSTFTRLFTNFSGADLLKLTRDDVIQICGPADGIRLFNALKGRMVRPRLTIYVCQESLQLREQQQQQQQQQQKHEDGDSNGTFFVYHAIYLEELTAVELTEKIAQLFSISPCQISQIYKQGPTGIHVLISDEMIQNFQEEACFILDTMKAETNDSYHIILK
Protocol: HEK293T, HeLa and COS7 cells were cultured in DMEM media supplemented with 10% FBS. FQI1 treatment of HEK293T cells was for 24 hours at 37° C. with 2.5 μM FQI1. Immunoprecipitation (IP) and immunofluorescence experiments were carried out as described previously. For the immunoprecipitation, 1 mg of total HEK293T cellular extract was incubated with 5 μg of either anti-SET8 antibody (Active Motif) or anti-LSF antibody (Millipore). The immunoprecipitates were blotted with anti-α tubulin, anti-β tubulin (Sigma T9026, T8328), anti-SET8 or anti-LSF (BD) antibodies as per the manufacturer's dilution recommendations. Cellular extracts were also immunoprecipitated with normal IgG (Cell Signaling Technology) as a negative control for all IP experiments.

[8] = molecular target: T3, tubulin (Sus scrofa, UniProt P02550+P02554); experiment: Tubulin polymerization assay (Cytoskeleton kit); type: biochemical; conditions: FIG. 4C
T3 construct: purchased Cytoskeleton
T3 sequence (P02550 whole entry): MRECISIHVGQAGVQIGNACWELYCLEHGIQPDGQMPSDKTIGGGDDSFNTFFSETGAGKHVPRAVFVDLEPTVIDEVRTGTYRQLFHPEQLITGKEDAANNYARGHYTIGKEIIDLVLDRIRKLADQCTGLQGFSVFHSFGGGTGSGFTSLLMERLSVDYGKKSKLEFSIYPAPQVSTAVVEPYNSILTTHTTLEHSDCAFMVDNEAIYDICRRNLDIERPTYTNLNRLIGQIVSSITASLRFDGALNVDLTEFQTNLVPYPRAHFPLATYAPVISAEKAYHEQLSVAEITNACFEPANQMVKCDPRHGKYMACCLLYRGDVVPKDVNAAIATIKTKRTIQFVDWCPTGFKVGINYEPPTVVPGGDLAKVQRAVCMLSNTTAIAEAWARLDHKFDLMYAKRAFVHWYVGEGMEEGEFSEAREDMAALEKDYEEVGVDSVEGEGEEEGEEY
T3 sequence (P02554 whole entry): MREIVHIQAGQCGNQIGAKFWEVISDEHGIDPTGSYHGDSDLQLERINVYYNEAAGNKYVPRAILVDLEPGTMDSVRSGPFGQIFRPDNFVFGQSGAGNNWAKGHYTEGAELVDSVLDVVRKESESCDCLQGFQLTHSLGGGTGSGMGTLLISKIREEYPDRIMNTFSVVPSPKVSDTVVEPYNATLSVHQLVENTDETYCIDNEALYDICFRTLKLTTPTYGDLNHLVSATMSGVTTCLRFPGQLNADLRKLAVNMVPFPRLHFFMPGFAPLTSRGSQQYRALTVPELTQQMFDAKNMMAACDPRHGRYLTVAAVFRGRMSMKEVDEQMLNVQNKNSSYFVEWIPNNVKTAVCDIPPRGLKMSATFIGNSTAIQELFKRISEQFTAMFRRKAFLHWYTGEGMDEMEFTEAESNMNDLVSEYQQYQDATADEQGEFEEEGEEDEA
Protocol: Quantitative determination of tubulin polymerization in vitro was carried out using the in vitro polymerization assay kits from either Millipore (17-10194) or Cytoskeleton (FQI1 assay only) according to the manufacturer's conditions. For the Millipopre kit, thawed tubulin was mixed with purified His-LSF, His-SET8 proteins or FQI1 in 70 μL final volumes of 1×PB-GTP solutions, and the 96-well plate was transferred to the pre-warmed (37° C.) SpectraMax M5 Microplate Reader to read UV-Visible Absorbance. Tubulin polymerization was followed by measuring the turbidity variation (light scattering) every 1 min at 350 nm for 1 hr.

[9] = test system: synchronized HCC cells; experiment: Mitotic phenotypes in synchronized HCC cells; type: cell-based; conditions: cells synchronized at G1/S border, released in presence of 5 μM
Protocol: FIG. 4A is a graph showing tubulin polymerization assay in the presence of low concentrations of LSF (Millipore kit). FIG. 4B are bands showing co-immunoprecipitation of LSF with endogenous α-tubulin from HEK293T cells which was disrupted upon treatment with 2.5 μM FQI1 for 24 hr. FIG. 4C is a graph showing tubulin polymerization assay in the presence of FQI1 and FQI2 (Cytoskeleton kit). Nocodazole was used as a control to inhibit polymerization. […] Cells were synchronized at the G1/S border and released in presence of 5 μM FQI1. Fixed cells were stained with α-tubulin antibody and DAPI.

[10] = test system: tubulin methylation by SET8; experiment: In vitro methylation assay, tubulin methylation by SET8; type: biochemical, porcine; conditions: with 862 nM LSF (FIG. 9B)
Protocol: as §5

[11] = molecular target: T4, tubulin methylation by SET8 (Sus scrofa, UniProt M3V851); experiment: as above; type: biochemical, porcine; conditions: at 100 μM (FIG. 5B lane 4); no LSF added
T4 construct: consistent with the presence of LSF in the tubulin preparations; purchased MP-Bioscience; host or cells: porcine brain (tubulin); GST-SET8 recombinant
T4 sequence (M3V851 1-502): as the sequence (Q12800 whole entry) above, with T168N, S302P counted along it
Protocol: as §5

[12] = test system: synchronized HeLa cells; experiment: Mitotic defects in synchronized HeLa cells; type: cell-based, human
Protocol: FIG. 8B is an image showing DAPI staining of synchronized cells, treated as indicated in panel FIG. 8A and analyzed at 20× magnification. Samples were collected at 0, 3, 6, and 19 hours post release from a G1/S block in presence of DMSO or FQI1. Insets represent individual cells in more detail. Arrows represent cells in metaphase or prometaphase, respectively, at the 6 hour time point. FIG. 8C is a bar graph showing quantification from 75-100 total cells analyzed by DNA and α-tubulin morphologies, indicating cells containing multi-asters, at 9 hours post release from a G1/S block. Data are representative of 2 experiments. FIG. 8D is a graph showing that the mitotic arrest mediated by limited FQI1 treatment of synchronized cells is reversible. Synchronized cells were released in the presence of 5 μM of FQI1 from a G1/S block. Ten hours after the release, the cells were washed and then either incubated with media alone or re-incubated with media in the presence of 5 μM FQI1. Samples were collected 24 hours post release. Fixed cells were stained with propidium iodide to analyze DNA content. […]

[13] = test system: RPE-hTERT Flp-In cells; experiment: FQI34/FQI1 comparison, mitotic defects in RPE-hTERT Flp-In cells; type: cell-based; conditions: one hour treatment; FIG. 33
Protocol: RPE-hTERT Flp-In cells were incubated in serum-free DMEM:F12 media for 24 hours to synchronize the cells in G0/G1. Cells were stimulated to reenter the cell cycle with DMEM:F12 media containing 10% Fetal Bovine Serum. After 24 hours, the cells were treated with DMSO (vehicle), FQI1 (2.5 μM or 5 μM), or FQI34 (250 nM or 500 nM) for one hour. The cells were washed twice with 1×Phosphate-buffered Saline and fixed with PHEM (3.7% formaldehyde in 100 mM PIPES at pH 6.8, 10 mM EGTA, 1 mM magnesium chloride, and 0.2% Triton X-100) for 10 minutes at room temperature. The fixed cells were stained for α-tubulin using a mouse anti-α-tubulin antibody (Fisher #62204). Secondary antibodies were: DMSO/FQI1 samples—goat anti-mouse IgG conjugated to Alexa 546 (Thermo Fisher #A11003); FQI34 samples—goat anti-mouse IgG conjugated to Texas Red (Fisher #T-862). DNA was stained with Hoechst 33342. Cells were imaged using a Nikon NiE using the 40× objective and images were captured using a DS-Qi1 Mc 12 bit camera. Scale bars and merged images were generated using Fiji software.

[14] = test system: HCC tumors; conditions: cited from earlier work

Row | Structure (SMILES) | GI50 [1] | GI50 [2] | GI50 [3] | GI50 [4] | effect on SET8 methylation of Histone H4 [5] | apoptosis in HCC cell line [6] | co-immunoprecipitation of LSF with endogenous α-tubulin [7] | effect on tubulin polymerization in vitro [8] | mitotic phenotype [9] | effect on enhancement of tubulin methylation by exogenously added LSF [10] | decrease of tubulin methylation by SET8 [11] | reversibility of mitotic arrest after washout ([12]; 5 μM for 10 hours, then washout, 24 hours post release) | multi-aster formation ([12]; synchronized cells, short treatment prior to mitosis (FIG. 8C)) | chromosome and spindle phenotype (DNA and α-tubulin immunofluorescence) [13] | toxicity to normal tissues ([14]; mouse HCC models) | tumor growth in mouse HCC models ([14]; multiple mouse HCC models)
1 | CCOc1cc(N(C)C)ccc1[C@H]1CC(=O)Nc2cc3c(cc21)OCO3 [(S)-FQI-34] | 0.59 µM | 0.05 µM | 3.8 µM | 0.056 µM |  |  |  |  |  |  |  |  |  |  |  | 
2 | CCOc1cc(N(C)C)ccc1[C@H]1CC(=O)Nc2cc3c(cc21)OCCO3 [(S)-FQI-37] |  | 0.06 µM |  | 0.07 µM |  |  |  |  |  |  |  |  |  |  |  | 
3 | CCOc1ccccc1C1CC(=O)Nc2cc3c(cc21)OCO3 (stereo not drawn) [FQI1] |  |  |  |  | does not affect | induces apoptosis | disrupted | inhibited tubulin polymerization | abnormal mitotic phenotypes | inhibited the ability of exogenously added LSF to enhance methylation of tubulin by SET8 | ~3 fold | reversible | concentration-dependent increase in multi-aster formation | condensed, but nonaligned chromosomes and disrupted spindles | no observable toxicity to normal tissues | significantly inhibits tumor growth

From patent US11420977B2, “Late SV40 (LSF) inhibitors” (Trustees of Boston University, priority 2018, dated 2022)
